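These data come from cells grown in 96-well plates and exposed to compound for 48 hours at five concentrations. At the GI50, growth is halved.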 The source made the active and inactive calls. Rule as the data show it: active = GI50 up to about 1.1 µM and inactive = higher.

Test systems include CCRF-CEM; EKVX; HCC 2998; HCT-116; HCT-15; HT-29; IGROV-1; M14; Malme-3M; NCI-H226; NCI-H522; OVCAR-8; RXF 393; SK-MEL-28; SK-MEL-2; SK-MEL-5; SR; U-251; UO-31; HOP-92.
Holding throughout (test): NCI anticancer screen, dose series, 48 h

As to `COc1c2c(c3ccccc3c1O)C1C=CC2C1` (stereo unspecified), the GI50 is 4.72 µM (inactive) with CCRF-CEM; 18.8 µM (inactive) in the assay with EKVX; 16.1 µM (inactive) with HCC 2998; 4 µM (inactive) with HCT-116; 10 µM with HCT-15; 19.7 µM (inactive) with HT-29. Moreover, the GI50 was 20.8 µM (inactive) in the assay on IGROV-1; 14.7 µM (inactive) with M14; 6.3 µM (inactive) in the assay with Malme-3M; > 10 µM (inactive) in the assay with NCI-H226; 14.9 µM (inactive) with NCI-H522; 13.7 µM (inactive) in the assay on OVCAR-8. For the same molecule, the GI50 was 15.5 µM (inactive) in the assay on RXF 393; 23.3 µM (inactive) in the assay on SK-MEL-28; 17.3 µM (inactive) in the assay on SK-MEL-2; 5.77 µM (inactive) in the assay on SK-MEL-5; 21 µM (inactive) in the assay on SR; 11.7 µM (inactive) in the assay with U-251. The GI50 in the assay with UO-31 was 5.35 µM (inactive).

Regarding `O=C(O)C(Br)Cc1ccc2c(c1)OCO2` (stereo unspecified), the GI50 in the assay with CCRF-CEM was > 100 µM (inactive); in the assay with EKVX, > 100 µM (inactive); with HCC 2998, > 100 µM (inactive); in the assay on HCT-116 it was > 100 µM (inactive); with HCT-15, above 100 µM; in the assay with HOP-92 it was > 100 µM (inactive). For the same molecule, the GI50 was > 100 µM (inactive) with HT-29; > 100 µM (inactive) with IGROV-1; > 100 µM (inactive) in the assay with M14; 40.7 µM (inactive) in the assay on Malme-3M; > 100 µM (inactive) with NCI-H522; 71.9 µM (inactive) in the assay with RXF 393. The GI50 with SK-MEL-28, in the assay with SK-MEL-2, in the assay with SK-MEL-5, with SR, in the assay on U-251 and in the assay with UO-31 was > 100 µM (inactive) each time.

Consider `COP(=O)(OC)C(Cc1c[nH]c2ccccc12)NC(=O)OCc1ccccc1` (stereo unspecified), for which the GI50 in the assay on CCRF-CEM is 5.89 µM (inactive); in the assay with HCC 2998, > 100 µM (inactive); with HCT-116, > 100 µM (inactive); in the assay on HCT-15 it was above 100 µM; in the assay with HOP-92, > 100 µM (inactive); in the assay with HT-29 it was > 100 µM (inactive). Also, the GI50 in the assay with IGROV-1, with M14, in the assay with NCI-H226, in the assay with NCI-H522, in the assay on OVCAR-8 and in the assay on SK-MEL-28 was > 100 µM (inactive) throughout. For the same molecule, the GI50 with SK-MEL-2, in the assay with SK-MEL-5, in the assay on SR, in the assay on U-251 and in the assay with UO-31 was > 100 µM (inactive) each time.

Turning to `C=CC(OC(=O)C(C)C)c1ccc(OC(=O)C(C)C)cc1` (stereo unspecified), the GI50 in the assay with CCRF-CEM was 3.24 µM (inactive); with EKVX, 22.4 µM (inactive); with HCC 2998, 13.1 µM (inactive); with HCT-116, 4.06 µM (inactive); with HCT-15 it was 5.74 µM; in the assay on HOP-92, 16.7 µM (inactive). Moreover, the GI50 is 11.1 µM (inactive) in the assay with HT-29; 18.4 µM (inactive) in the assay with IGROV-1; 7.67 µM (inactive) with M14; 7.57 µM (inactive) in the assay with Malme-3M; 20.6 µM (inactive) with NCI-H226; 1.73 µM (inactive) in the assay on NCI-H522. In addition, the GI50 was 17.5 µM (inactive) in the assay on OVCAR-8; 10.6 µM (inactive) in the assay on SK-MEL-28; 11.2 µM (inactive) with SK-MEL-2; 16.3 µM (inactive) in the assay on SK-MEL-5; 6.92 µM (inactive) with SR; 4.33 µM (inactive) in the assay on U-251. The GI50 with UO-31 was 17.2 µM (inactive).

On to `O=C(O)c1c[nH]c2c(=O)[nH]cnc12`, for which the GI50 in the assay with CCRF-CEM is > 100 µM (inactive); with EKVX it was > 100 µM (inactive); in the assay on HCC 2998, > 100 µM (inactive); in the assay with HCT-116, > 100 µM (inactive); in the assay with HCT-15, above 100 µM; in the assay on HOP-92 it was > 100 µM (inactive). The GI50 in the assay on HT-29, with IGROV-1, in the assay with M14, in the assay on Malme-3M, with NCI-H522 and with OVCAR-8 was > 100 µM (inactive) throughout. For the same molecule, the GI50 in the assay on RXF 393, in the assay with SK-MEL-28, in the assay with SK-MEL-2, in the assay on SK-MEL-5, in the assay on SR and with UO-31 was > 100 µM (inactive) each time.

With `CCOC(=O)C1=C(C)N(c2ccc(Cl)cc2)C2(O)C=CC(Nc3ccc(Cl)cc3)=C3C(=O)N(c4ccccc4)C(=O)C312` (stereo unspecified), the GI50 is 1.64 µM (inactive) in the assay with CCRF-CEM; 3.45 µM in the assay on HCT-15; 0.791 µM (active) in the assay on HOP-92; 3.66 µM (inactive) in the assay with HT-29; 5.36 µM (inactive) in the assay with IGROV-1; 3.13 µM (inactive) in the assay on M14. Besides, the GI50 is 7.71 µM (inactive) in the assay on Malme-3M; 1.34 µM (inactive) with NCI-H522; 3.64 µM (inactive) with OVCAR-8; 2.36 µM (inactive) in the assay on SK-MEL-28; 2.58 µM (inactive) in the assay with SK-MEL-2; 2.39 µM (inactive) in the assay with SK-MEL-5. Also, the GI50 is 2.88 µM (inactive) with SR, 4.85 µM (inactive) with U-251 and 4.89 µM (inactive) in the assay on UO-31.

As to `COc1ccc([C@@H]2ON(C)[C@H]3CN(C)C(=O)[C@@H]23)cc1`, the GI50 with CCRF-CEM is > 100 µM (inactive); in the assay on HCC 2998, > 100 µM (inactive); in the assay with HCT-116, > 100 µM (inactive); in the assay on HCT-15 it was above 100 µM; in the assay with HOP-92, > 100 µM (inactive); with HT-29 it was > 100 µM (inactive). Moreover, the GI50 with IGROV-1, in the assay on M14, in the assay with NCI-H226, in the assay with NCI-H522, in the assay with OVCAR-8 and in the assay on SK-MEL-28 was > 100 µM (inactive) each time. For the same molecule, the GI50 in the assay with SK-MEL-2, in the assay with SK-MEL-5, in the assay on SR, in the assay on U-251 and in the assay with UO-31 was > 100 µM (inactive) throughout.

For the molecule `CC1=C(CO)C(=O)O[C@@H]([C@@H](C)[C@H]2CC[C@H]3[C@@H]4C[C@H]5O[C@]56[C@@H](O)C=CC(=O)[C@]6(C)[C@H]4CC[C@]23C)C1` [WITHAFERIN A], the GI50 with CCRF-CEM is 0.113 µM (active); with HCC 2998 it was 0.509 µM (active); in the assay on HCT-116 it was 0.282 µM (active); in the assay on HCT-15 it was 0.446 µM; in the assay with HOP-92, 0.467 µM (active); in the assay with HT-29, 0.417 µM (active). In addition, the GI50 in the assay on IGROV-1 was 1.16 µM (inactive); in the assay with M14, 0.423 µM (active); in the assay on Malme-3M, 0.243 µM (active); with NCI-H226 it was 1.3 µM (inactive); with NCI-H522, 0.0335 µM (active); in the assay on OVCAR-8 it was 0.374 µM (active). Further, the GI50 in the assay with SK-MEL-28 is 0.55 µM (active); in the assay with SK-MEL-2 it was 0.601 µM (active); in the assay on SK-MEL-5, 1.68 µM (inactive); with SR, 0.189 µM (active); in the assay on U-251, 0.247 µM (active); in the assay with UO-31 it was 1.09 µM (active).

The values are drawn from ChEMBL document CHEMBL1201862, “PubChem BioAssay data set” (2004).
